Experimental data published in PMC11823594, “Durlobactam in combination with β-lactams to combat Mycobacterium abscessus” (Antimicrobial Agents and Chemotherapy, 2024).
Where two headings read alike, the source gives them in different places.

What was measured:
[1] = target: T1, LDT1 (Mycobacterium abscessus, UniProt B1MDC1); test: Mass spectrometry of covalent adduct formation; assay type: binding; conditions: protein:drug 1:20, 2 h; mass accuracy ±5 Da; (−) = no change
Method: (§1) Truncated sequences of LDT1-5, DDC, PBP B, and PBP-lipo (Δ1–41) were generated by Celtek Biosciences and cloned into the pET28(a) + vector with a tobacco etch virus (TEV) protease cleavage site before the start codon. Clones were transformed into Escherichia coli BL21 (DE3) and grown to an OD600 of 0.6–0.8. […] Cell pellets were collected and stored at −20°C overnight, then resuspended in a buffer containing 50 mM Tris (pH 8.0), 400 mM sodium chloride, and 1 mM Tris (2-carboxyethyl) phosphine hydrochloride (TCEP), followed by sonication and centrifugation. The supernatant was purified using a His Prep FF 16/10 column (GE Healthcare) and eluted with 500 mM imidazole. Eluted protein was dialyzed overnight at 4°C in a buffer with 50 mM Tris (pH 8.0), 150 mM sodium chloride, and 0.5 mM TCEP in the presence of His-tagged TEV protease. To remove the His tag, the mixture was passed over the His Prep FF 16/10 column again.
(§2) The purified proteins listed above were incubated at room temperature with β-lactams or BLIs at a molar ratio of 1:20 for 2 h. The reactions were then quenched with acetonitrile and diluted to 1 mL with 0.1% formic acid in water. Samples were analyzed using a quadrupole time-of-flight (Q-TOF) Waters Synapt-G2-Si electrospray ionization mass spectrometer (ESI-MS) and a Waters Acquity H class ultra-performance liquid chromatography (UPLC) system, equipped with a BEH C18 1.7 µm column (2.1 × 50 mm). The MS was tuned with the following settings: capillary voltage set at 3 kV, sampling cone at 35 V, source offset at 35, source temperature of 100°C, desolvation temperature of 500°C, cone gas flow rate at 100 L/h, desolvation gas flow rate at 800 L/h, and nebulizer set at 6.0. The mobile phases consisted of 0.1% formic acid in water and 0.1% formic acid in 100% acetonitrile, with gradient elution from 10% to 90% of […] over 11 min. The system’s mass accuracy was ±5 Da.

[2] = target: T2, LDT5 (Mycobacterium abscessus, UniProt B1MM58); test: Mass spectrometry of covalent adduct formation; assay type: binding; conditions: protein:drug 1:20, 2 h; mass accuracy ±5 Da; (−) = no change
T2 sequence (B1MM58 entry or part of it): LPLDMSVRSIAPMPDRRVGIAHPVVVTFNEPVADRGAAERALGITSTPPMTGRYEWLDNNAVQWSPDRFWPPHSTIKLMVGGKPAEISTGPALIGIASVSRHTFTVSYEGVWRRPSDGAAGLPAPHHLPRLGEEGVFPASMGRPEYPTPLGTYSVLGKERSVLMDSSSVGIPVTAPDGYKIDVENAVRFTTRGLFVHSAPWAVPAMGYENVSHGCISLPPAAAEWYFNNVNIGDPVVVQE
Method: as §1, §2

[3] = target: BlaMab (Mycobacterium abscessus, UniProt B1MCI3); test: Ki,app for the β-lactamase; assay type: biochemical
Chain of BlaMab (B1MCI3 entry or part of it): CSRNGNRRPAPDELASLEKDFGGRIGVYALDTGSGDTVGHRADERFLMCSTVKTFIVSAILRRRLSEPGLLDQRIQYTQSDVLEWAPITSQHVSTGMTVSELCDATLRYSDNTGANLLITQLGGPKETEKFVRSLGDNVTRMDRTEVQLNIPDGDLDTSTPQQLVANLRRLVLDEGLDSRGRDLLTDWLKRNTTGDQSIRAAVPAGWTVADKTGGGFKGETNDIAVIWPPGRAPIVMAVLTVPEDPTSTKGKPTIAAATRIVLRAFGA

[4] = target: T1, LDT1; test: Steady-state kinetics with nitrocefin (Ki,app); assay type: biochemical; conditions: for Ki: Ki,app LDT1, nitrocefin at 5 × Km; for Ratio of fCss,avg to Ki,app, LDT1: in parentheses in Table 3
Method: (§3) Steady-state kinetic studies were conducted using purified LDTs and PBPs (LDT1-5, PBP B, PBP-lipo, and DDC) as previously described ([20]). The assays were performed using a BioTek Synergy2 multimode reader in conjunction with Gen5 analysis software. Increasing concentrations of NCF (Δε482 = 17,400 M^⁻¹ cm^⁻¹) were used, while fixed concentrations of the LDTs and PBPs were monitored for changes in absorbance at 482 nm over a time period of 0 to 10 min. To determine reaction velocities, a 0.25 cm path length was employed. The steady-state kinetic parameters (Vmax, kcat, and Km) were obtained by fitting the data to the Henri-Michaelis-Menten equation using a nonlinear least-squares fit in Origin 8.1 software (OriginLab, Northampton, MA). The reaction rate (v) at a given substrate concentration ([S]) was calculated according to the following equations: […]
(§4) To determine the apparent inhibition constants (Ki,app) for β-lactams and BLIs, the following experimental condition was employed: NCF as a substrate at a concentration of 5 × Km, LDT/ PBP enzymes with fixed concentration, and β-lactams and BLIs with various concentrations. Changes in absorbance at 482 nm were measured over a period of 0–30 min for each concentration of β-lactams and BLIs. Data were linearized using a Dixon plot, plotting the inverse changes in absorbance (1/ΔA) against the concentrations of β-lactams and BLIs. The observed Ki,app was determined directly from the Dixon plot, and these values were corrected for substrate concentration and affinity for the LDT using the following equation:
(§5) Ki,app=observed Ki,app/1+[NCF]/Km NCF

[5] = target: LDT2 (Mycobacterium abscessus, UniProt B1MMQ4); test: Steady-state kinetics with nitrocefin (Ki,app); assay type: biochemical; conditions: for Ki: Ki,app LDT2, nitrocefin at 5 × Km; for Ratio of fCss,avg to Ki,app, LDT2: in parentheses in Table 3
Chain of LDT2 (B1MMQ4 entry or part of it): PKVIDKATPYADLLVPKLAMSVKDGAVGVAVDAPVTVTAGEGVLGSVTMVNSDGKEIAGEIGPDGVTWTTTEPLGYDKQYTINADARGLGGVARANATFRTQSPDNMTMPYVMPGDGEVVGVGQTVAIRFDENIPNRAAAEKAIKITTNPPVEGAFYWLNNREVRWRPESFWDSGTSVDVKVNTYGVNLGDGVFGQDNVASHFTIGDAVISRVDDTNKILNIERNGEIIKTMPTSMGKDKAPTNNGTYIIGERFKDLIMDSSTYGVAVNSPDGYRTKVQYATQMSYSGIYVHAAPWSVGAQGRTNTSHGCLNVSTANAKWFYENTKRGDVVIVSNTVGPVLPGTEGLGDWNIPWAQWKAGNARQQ
Method: as §3, §4, §5

[6] = target: LDT4 (Mycobacterium abscessus, UniProt B1MKW1); test: Steady-state kinetics with nitrocefin (Ki,app); assay type: biochemical; conditions: in parentheses in Table 3
Chain of LDT4 (B1MKW1 entry or part of it): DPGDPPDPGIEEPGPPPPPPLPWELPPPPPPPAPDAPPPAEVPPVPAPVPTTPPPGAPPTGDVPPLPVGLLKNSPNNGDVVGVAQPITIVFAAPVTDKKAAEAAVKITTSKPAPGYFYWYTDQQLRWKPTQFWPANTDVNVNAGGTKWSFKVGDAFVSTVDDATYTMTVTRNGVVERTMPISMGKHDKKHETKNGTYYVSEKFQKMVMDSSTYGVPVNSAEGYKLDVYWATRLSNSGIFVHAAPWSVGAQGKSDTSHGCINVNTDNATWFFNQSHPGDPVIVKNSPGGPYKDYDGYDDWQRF
Method: as §3, §4, §5

[7] = target: T2, LDT5; test: Steady-state kinetics with nitrocefin (Ki,app); assay type: biochemical; conditions: in parentheses in Table 3
Method: as §3, with “Increasing concentrations of NCF (Δε482 = 17,400 M^⁻¹ cm^⁻¹) were used, while fixed concentrations of the LDTs and PBPs were monitored for changes in absorbance at 482 nm over a time period of 0 to 10 min.” left out
Changes in absorbance at 482 nm were measured over a period of 0–30 min for each concentration of β-lactams and BLIs. Data were linearized using a Dixon plot, plotting the inverse changes in absorbance (1/ΔA) against the concentrations of β-lactams and BLIs. The observed Ki,app was determined directly from the Dixon plot, and these values were corrected for substrate concentration and affinity for the LDT using the following equation:
as §5

[8] = human, in vivo; cited from earlier work
[9] = target: DDC (Mycobacteroides abscessus, UniProt B1MDJ1); test: Mass spectrometry of covalent adduct formation; assay type: binding; conditions: protein:drug 1:20, 2 h; mass accuracy ±5 Da; (−) = no change
Chain of DDC (B1MDJ1 entry or part of it): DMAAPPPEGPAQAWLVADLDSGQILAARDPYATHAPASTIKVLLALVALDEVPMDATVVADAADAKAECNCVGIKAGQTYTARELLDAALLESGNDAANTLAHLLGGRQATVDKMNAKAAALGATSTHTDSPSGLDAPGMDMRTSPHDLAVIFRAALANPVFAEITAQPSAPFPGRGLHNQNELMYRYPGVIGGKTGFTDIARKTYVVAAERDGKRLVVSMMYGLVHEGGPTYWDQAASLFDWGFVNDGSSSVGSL
Method: as §1, §2

[10] = target: LDT3 (Mycobacterium abscessus, UniProt B1MHQ4); test: Steady-state kinetics with nitrocefin (Ki,app); assay type: biochemical; conditions: in parentheses in Table 3
Chain of LDT3 (B1MHQ4 entry or part of it): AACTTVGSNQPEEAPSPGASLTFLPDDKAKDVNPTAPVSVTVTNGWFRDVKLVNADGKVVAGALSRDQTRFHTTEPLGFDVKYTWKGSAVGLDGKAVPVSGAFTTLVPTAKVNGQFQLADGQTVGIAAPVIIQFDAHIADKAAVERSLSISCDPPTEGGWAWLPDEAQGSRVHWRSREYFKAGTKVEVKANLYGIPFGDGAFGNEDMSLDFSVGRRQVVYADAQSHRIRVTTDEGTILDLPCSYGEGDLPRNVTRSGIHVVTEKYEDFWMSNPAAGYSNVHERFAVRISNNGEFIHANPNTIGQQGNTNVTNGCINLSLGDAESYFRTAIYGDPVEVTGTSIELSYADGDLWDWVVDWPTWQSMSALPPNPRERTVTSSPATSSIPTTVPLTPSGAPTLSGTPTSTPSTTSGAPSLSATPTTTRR
Method: as §3, §4, §5

[11] = read-out: Ki,app BlaMab (converted)

T1 sequence (B1MDC1 entry or part of it): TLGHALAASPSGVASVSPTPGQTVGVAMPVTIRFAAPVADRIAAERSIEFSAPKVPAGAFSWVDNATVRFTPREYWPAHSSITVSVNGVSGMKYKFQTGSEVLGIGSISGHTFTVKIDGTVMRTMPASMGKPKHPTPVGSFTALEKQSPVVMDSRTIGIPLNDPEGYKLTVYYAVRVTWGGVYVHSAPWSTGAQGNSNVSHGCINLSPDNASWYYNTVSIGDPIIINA

SMILES | Observed MW (+ change in mw), LDT1 (23,059) [1] | Observed MW (+ change in mw), LDT5 (28,220) [2] | Ki ([3]; read-out: Ki,app BlaMab) [nM] | Ki [4] [nM] | Ratio of fCss,avg to Ki,app, LDT1 [4] | Ki [5] [nM] | Ratio of fCss,avg to Ki,app, LDT2 [5] | Ratio of fCss,avg to Ki,app, LDT4 [6] | Ki [3, 11] [nM] | Ratio of fCss,avg to Ki,app, LDT5 [7] | Total clearance after IV dosing [8] [L/h] | Observed MW (+ change in mw), DDC (26,788) [9] | Ratio of fCss,avg to Ki,app, LDT3 [10]
CC1(C)S[C@@H]2[C@H](NC(=O)[C@H](N)c3ccc(O)cc3)C(=O)N2[C@H]1C(=O)O [Amoxicillin, amoxicillin] | 28,220 (−) Da | 28,220 (−) Da | < 13700 | – | – | – | – | – | – | – | – | – | –
NC(=O)[C@@H]1CC[C@@H]2CN1C(=O)N2OS(=O)(=O)O [Avibactam, avibactam] | 23,325 (+265) Da | 28,220 (−) Da | – | 26400 | 0.7 | 1700 | 11 | < 0.02 | 300 | – | – | – | –
CO/N=C(\C(=O)N[C@@H]1C(=O)N2C(C(=O)O)=C(COC(N)=O)CS[C@H]12)c1ccco1 [Cefuroxime, cefuroxime] | 23,059 (−) Da | – | – | – | – | 1180 | 24 | – | – | 7.5 | 9.0 to 16 | – | –
CC1=C[C@@H]2CN(C(=O)N2OS(=O)(=O)O)[C@@H]1C(N)=O [Durlobactam, durlobactam] | 23,336 (+277) Da | 28,496 (+276) Da | – | 418000 | 0.1 | – | – | 6 | 3.97 | 145 | – | 27,066 (+276) Da | –
C[C@@H](O)[C@H]1C(=O)N2C(C(=O)O)=C(SCCN=CN)C[C@H]12 [Imipenem, imipenem] | – | – | – | 6.68 | 5714 | 6.68 | 6667 | 3 | 17000 | 0.4 | – | – | –
C[C@@H](O)[C@H]1C(=O)N2C(C(=O)O)=C(S[C@H]3CC[S@@+]([O-])C3)S[C@H]12 [Sulopenem, sulopenem] | – | 28,306 (+86) Da | – | – | – | 200 | 29 | 1.1 | – | 1.5 | – | 27,138 (+349) Da | 0.4
C[C@@H](O)[C@H]1C(=O)N2C(C(=O)O)=C(SC3CN(C4=NCCS4)C3)[C@H](C)[C@H]12 [Tebipenem, tebipenem] | 23,443 (+384) Da | 28,220 (−) Da | – | 4950 | 0.9 | 26.1 | 170 | 2.4 | < 13000 | – | – | 27,173 (+385) Da | –
